Results reported in paper PMC12021911, “Comparative evaluation of antimicrobial peptides: effect on formation, metabolic activity and viability of Klebsiella pneumoniae biofilms” (Frontiers in Microbiology, 2025).
In brackets after ≈: the same amount, converted by molar mass. Read-outs that look alike come from different tables or passages of the source.

Key:
Format in all cases: cell-based, Klebsiella pneumoniae
K. pneumoniae 17349 [1] = assay: microbe, parasite or virus in culture
Experimental: (§1) Three different strains of K. pneumoniae were investigated in this study which were originally isolated from a human, a pig and a dog (Table 2) and characterized in previous studies ([Krieger et al., 2021]; [Krieger et al., 2022]). Minimum inhibitory concentration (MIC) values were determined according to EUCAST guidelines by microdilution test and are shown in Supplementary Table S1.
(§2) Table S1 Minimum inhibitory concentration (MIC) values of the three K. pneumoniae strains,
(§3) determined according to EUCAST guidelines by microdilution test.
(§4) MIC [µg/mL] of indicated antibiotics

[2] = system: K. pneumoniae 42KC-108224-1; assay: microbe, parasite or virus in culture
Experimental: as §1, §2, §3, §4

K. pneumoniae IMT40061 [3] = assay: microbe, parasite or virus in culture
Experimental: as §1, §2, §3, §4

[4] = system: K. pneumoniae 42KC-108224-1; assay: crystal violet assay, biofilm formation upon AMP treatment; details: for biofilm mass (crystal violet), percentage of the growth control: 16 μg/mL, 22 h, 37°C, 50% BHI, mean, n ≥ 3
Experimental: (§5) To quantify biofilm formation, the crystal violet assay was done as described previously ([Sager et al., 2015]). Specifically, bacteria were grown in 10 mL BHI broth for 18 h at 37°C on a shaking platform (120 rpm). Subsequently 100 μL of a 1:100 dilution of this overnight culture in BHI was transferred to 96-well plates and incubated for 24 h at 37°C. Wells with BHI broth only were used as blank. Five replicates were investigated per strain. After incubation the suspension was discarded, plates were washed three times with tap water and air-dried. Subsequently, 100 μL of 1% crystal violet (T123.1, Th. Geyer GmbH & Co. KG, Renningen, Germany) in distilled water was added to each well and incubated for 15 min at room temperature before rinsing the plates four times with tap water and air-drying them again. One hundred μL of 99% ethanol were added to each well for 15 min at room temperature to dissolve the remaining crystal violet. Subsequently, the optical density at 540 nm (OD540) was measured using the BioTek Synergy H1 microplate reader to quantify biofilm mass remaining in the wells. OD values of the blank were subtracted from all the samples. Each experiment was conducted three times.
(§6) To determine the effect of the AMPs on biofilm formation of K. pneumoniae, a standardized bacterial suspension and serial dilutions of antimicrobial agents were incubated together as conducted for determination of planktonic growth. After incubation the crystal violet assay was performed as described above. The percentage of biofilm formation was calculated based on the growth control. The experiment was conducted at least three times.

K. pneumoniae IMT40061 [5] = assay: as above; details: 16 μg/mL; 22 h, 37°C, 50% BHI; mean, n ≥ 3
Experimental: as §5, §6

[6] = system: K. pneumoniae 42KC-108224-1; assay: fluorescence assay on mature biofilms (SYTO 9 / propidium iodide); details: for viable biofilm mass (SYTO™ 9): 24 h treatment of mature biofilm, strongest reduction, concentration not given
Experimental: (§7) The proportion of living and dead bacteria was determined using the fluorescence assay FilmTracer™ LIVE/DEAD biofilm viability kit (L10316, Life Technologies GmbH, Darmstadt, Germany). A bacterial count of 2 × 10^7 CFU/mL was inoculated in 50% BHI broth, 100 μL were added to a 96-well plate in duplicate and plates were incubated for 22 h at 37°C. Wells containing only BHI broth were used as blank. After incubation, the supernatant was discarded and plates were washed three times with sterile PBS. […] After incubation for 24 h at 37°C and washing three times with sterile PBS, 50 μL filter-sterilized water containing 0.15 μL each of SYTO™ 9 stain and propidium iodide stain was added to each well. Plates were incubated for 20 min at room temperature in the dark. The staining solution was discarded and the plates were washed three times with sterile PBS. The fluorescence intensity of the SYTO™ 9 stain (λex = 470 nm, λem = 500 nm) and the propidium iodide stain (λex = 490 nm, λem = 635 nm) were measured on a BioTek Synergy H1 microplate reader and corrected for the blank values. The percentage of fluorescence intensity was calculated based on the negative control. The SYTO™ 9/propidium iodide ratio was calculated. The experiment was conducted at least three times.

K. pneumoniae IMT40061 [7] = assay: as above; details: 24 h treatment of mature biofilm; at very high concentrations
Experimental: as §7

K. pneumoniae 17349 [8] = assay: crystal violet assay, biofilm formation upon AMP treatment; details: 22 h, 37°C, 50% BHI, mean, n ≥ 3
Experimental: as §5, §6

K. pneumoniae 17349 [9] = assay: resazurin assay, metabolic activity of biofilm; details: 16 μg/mL; 22 h co-incubation, 37°C, 50% BHI; n ≥ 3
Experimental: Biofilm viability was quantified using the resazurin assay as previously described ([Fontoura et al., 2023]) with minor modifications. A standardized bacterial suspension and serial dilutions of antimicrobial agents were incubated together as conducted for determination of planktonic growth and biofilm formation. After incubation, the bacterial suspension was discarded and plates were washed three times with sterile PBS. One hundred microliters of sterile PBS containing 2 μL of resazurin (6.75 mg/mL, in sterile PBS; R7017-1G, Merck KGaA, Darmstadt, Germany) were added per well. After an incubation of 3–5 h at 37°C fluorescence intensity was measured with an excitation wavelength (λex) of 528 nm and an emission wavelength (λem) of 645 nm by BioTek Synergy H1 microplate reader. Measured values of the blank were subtracted from all the samples. The percentage of metabolic activity was calculated based on the growth control. The experiment was conducted at least three times.

[10] = system: all three K. pneumoniae strains; assay: crystal violet assay, biofilm formation, statements on all three strains; details: all three strains; concentration not given
Experimental: as §5, §6

[11] = Klebsiella pneumoniae, 42KC1082241
[12] = Klebsiella pneumoniae, IMT40061
[13] = Klebsiella pneumoniae, 17349, EUCAST guidelines, microdilution test, read-out: MIC
[14] = Klebsiella pneumoniae, 42KC1082241, EUCAST guidelines, microdilution test, read-out: MIC
[15] = Klebsiella pneumoniae, IMT40061, EUCAST guidelines, microdilution test, read-out: MIC
[16] = EUCAST guidelines, microdilution test

`C[C@@H](O)[C@H]1C(=O)N2C(C(=O)O)=C(S[C@@H]3CN[C@H](C(=O)N(C)C)C3)[C@H](C)[C@H]12` [Meropenem] showed an MIC (K. pneumoniae 17349 [1]; Klebsiella pneumoniae, 17349) of less than 0.125 µg/mL, an MIC [2, 11] of less than 0.125 µg/mL and an MIC (K. pneumoniae IMT40061 [3]; [12]) of less than 0.125 µg/mL.
`NCC[C@H](O)C(=O)N[C@@H]1C[C@H](N)[C@@H](O[C@H]2O[C@H](CN)[C@@H](O)[C@H](O)[C@H]2O)[C@H](O)[C@H]1O[C@H]1O[C@H](CO)[C@@H](O)[C@H](N)[C@H]1O` [Amikacin] gave an MIC (K. pneumoniae 17349 [1]; [13]) of less than 0.5 µg/mL, an MIC [2, 14] of less than 0.5 µg/mL and an MIC (K. pneumoniae IMT40061 [3]; [15]) of 4 µg/mL (≈ 6.83 µM).
In the case of `CO/N=C(\C(=O)N[C@@H]1C(=O)N2C(C(=O)O)=C(COC(N)=O)CS[C@H]12)c1ccco1` [Cefuroxime], the MIC (K. pneumoniae 17349 [1]; [13]) is reported as 1 µg/mL (≈ 2.36 µM), the MIC [2, 14] is reported as 2 µg/mL (≈ 4.71 µM) and the MIC (K. pneumoniae IMT40061 [3]; [15]) is reported as greater than 32 µg/mL.
“KRFRIRVRV-NH2 [compound 1037, Synthetic antimicrobial peptide]” was tested, and the “biofilm mass (crystal violet), percentage of the growth control” value [4] was 53%, the “biofilm mass (crystal violet), percentage of the growth control” value (K. pneumoniae IMT40061 [5]) was 67% and the “viable biofilm mass (SYTO™ 9)” value [6] was 43%.
For `CC[C@H]1OC(=O)[C@H](C)[C@@H](O[C@H]2C[C@@](C)(OC)[C@@H](O)[C@H](C)O2)[C@H](C)[C@@H](O[C@@H]2O[C@H](C)C[C@H](N(C)C)[C@H]2O)[C@](C)(O)C[C@@H](C)C(=O)[C@H](C)[C@@H](O)[C@]1(C)O` [Erythromycin], the “fluorescence intensity of propidium iodide in percent (dead cells)” value ([6]; 64 μg/mL in PBS, 24 h on 22 h-old biofilm, mean, n ≥ 3) was 64% and the “living biofilm mass (SYTO™ 9)” value (K. pneumoniae IMT40061 [7]) was 69%.
Work on `NC[C@H]1O[C@H](O[C@H]2[C@H](O)[C@@H](O[C@H]3O[C@H](CO)[C@@H](O)[C@H](N)[C@H]3O)[C@H](N)C[C@@H]2N)[C@H](N)C[C@@H]1O` [Tobramycin] yielded an MIC (K. pneumoniae 17349 [1]; [13]) of less than 0.125 µg/mL, an MIC [2, 14] of 0.25 µg/mL (≈ 0.535 µM) and an MIC (K. pneumoniae IMT40061 [3]; [15]) of 4 µg/mL (≈ 8.56 µM).
`COc1c(N2C[C@@H]3CCCN[C@@H]3C2)c(F)cc2c(=O)c(C(=O)O)cn(C3CC3)c12` [Moxifloxacin] was tested, and the MIC (K. pneumoniae 17349 [1]; [13]) was 0.25 µg/mL (≈ 0.623 µM), the MIC [2, 14] was 0.0625 µg/mL (≈ 0.156 µM) and the MIC (K. pneumoniae IMT40061 [3]; [15]) was greater than 4 µg/mL.
Ampicillin/Sulbactam was tested, and the MIC (K. pneumoniae 17349 [1]; [16]) was 1/4, the MIC [2, 16] was 8/4 and the MIC (K. pneumoniae IMT40061 [3]; [16]) was > 32/4.
For `CNC(C)C1CCC(N)C(OC2C(N)CC(N)C(OC3OCC(C)(O)C(NC)C3O)C2O)O1` (stereo not drawn) [Gentamicin], the MIC (K. pneumoniae 17349 [1]; [13]) was 0.25 µg/mL (≈ 0.523 µM), the MIC [2, 14] was less than 0.125 µg/mL and the MIC (K. pneumoniae IMT40061 [3]; [15]) was 0.5 µg/mL (≈ 1.05 µM).
For “LLGDFFRKSKEKIGKEFKRIVQRIKDFLRNLVPRTES-OH [LL-37, Human cathelicidin, purchased from GENAXXON bioscience GmbH]”, the “biofilm mass (crystal violet), percentage of the growth control” value (K. pneumoniae 17349 [8]; 0.5 μg/mL) was 140%, the “biofilm mass (crystal violet), percentage of the growth control” value (K. pneumoniae 17349 [8]; 16 μg/mL) was 13% and the “metabolic activity of the biofilm (resazurin), percentage of the growth control” value (K. pneumoniae 17349 [9]) was 30%. The “biofilm mass, % of the untreated control” value [10] was “less than 40%”.
In the case of “VDKPPYLPRPRPPRrIYNr-NH2 [Onc112, Insect-derived proline-rich AMP, derivate of Oncopeltus antibacterial peptide 4]”, the “biofilm mass (crystal violet), percentage of the growth control” value [4] is reported as 26%, the “biofilm formation inhibited to” value ([4]; concentration not given) is reported as 26% and the “viable biofilm mass (SYTO™ 9)” value [6] is reported as 55%.
Compound `C[C@@H](O)[C@H]1C(=O)N2C(C(=O)O)=C(SCCN=CN)C[C@H]12` [Imipenem] has an MIC (K. pneumoniae 17349 [1]; Klebsiella pneumoniae, 17349) of less than 0.125 µg/mL, an MIC [2, 11] of less than 0.125 µg/mL and an MIC (K. pneumoniae IMT40061 [3]; [12]) of less than 0.125 µg/mL.
